Laboratory results taken from patent publication US8959984B2, “Proteome-wide quantification of small molecule binding to cellular target proteins” (priority 2007, dated 2015).

How the values were obtained:
Test in all cases: binding to AX14596 beads (HeLa lysate, SILAC MS)
YES (YES1) = target: T1, YES (YES1) (Homo sapiens, UniProt P07947)
T1 construct: endogenous in cells; host or cells: HeLa S3
Description: (§1) Differentially SILAC-encoded cell lysates were either incubated with the inhibitor beads displaying immobilized AX14596 or control resin devoid of ligand. In parallel, the supernatant from the first binding step was subjected to a second incubation with the AX14596 resin (FIG. 4). The resulting three elution fractions were combined, resolved by gel electrophoresis, proteolytically digested and the relative abundance of the retained proteins quantified. Proteins showing considerable binding to the control resin were identified as non-specific interactors and therefore not considered further. […] These target-specific ratios were similar in “label switch” experiments (FIGS. 6a and 6c). The binding equilibrium was determined in parallel control SILAC experiments as well as the excess of the immobilized compound over its cellular targets, the excess preferably being a molar excess (FIG. 7 and FIG. 8).
(§2) Cysteine carbamidomethylation was set as a fixed modification and N-acetyl protein and oxidized methionine were allowed as variable modifications. Spectra that were determined to result from heavy labeled peptides in the pre-search detection of SILAC partners by MaxQuant were searched with the fixed modifications Lys^4, Lys^8, Arg^6 and Arg^10, whereas MS/MS spectra for which no SILAC state could be assigned before database searching were searched with Lys^4, Lys^8, Arg^6 and Arg^10 as variable modifications. The mass tolerance was set to 5 ppm for monoisotopic precursor ions and to 0.5 Da for MS/MS peaks. The minimum peptide length was set to 6 amino acids and up to three missed cleavages and three isotopically labeled amino acids were permitted per peptide. The accepted false discovery rate (FDR) was 1% for the proteins and peptides. The cut-off for the posterior error probability (PEP) of peptides was set to 10%. Peptide PEPs were determined by generating Mascot score and peptide-length-dependent histograms for both the forward and the reverse hits and then deriving the probability of a false identification for a given top-scoring peptide using Bayes' theorem. The PEPs of peptides belonging to the same proteins were then multiplied. Each peptide sequence was considered only once with the lowest PEP determined in case of multiple sequencing of the same isotopic pattern or of peptide species with different SILAC, charge or modification states. Proteins were then sorted according to their products of their peptide PEPs and included until a FDR of 1% was reached according to the fraction of reverse proteins contained in the protein list. In addition to the FDR threshold applied for protein identification, proteins were only included when they were identified with at least two peptides (of which one was required to be unique for the protein) and quantified if at least on quantifiable SILAC pair was associated with them. Outliers were not removed as protein ratios were calculated as the median instead of the average of all peptide ratios. For peptides shared among different identified proteins, SILAC ratios were only considered for the ratio of the protein identified with the highest number of unique peptides. Protein ratios for the different in vitro association experiments were corrected for the initial SILAC pooling ratio, which was determined from the median of protein ratios in pooled SILAC-encoded cell extracts.

MET = MET (Homo sapiens, UniProt P08581)
Chain of MET (P08581 25-1390): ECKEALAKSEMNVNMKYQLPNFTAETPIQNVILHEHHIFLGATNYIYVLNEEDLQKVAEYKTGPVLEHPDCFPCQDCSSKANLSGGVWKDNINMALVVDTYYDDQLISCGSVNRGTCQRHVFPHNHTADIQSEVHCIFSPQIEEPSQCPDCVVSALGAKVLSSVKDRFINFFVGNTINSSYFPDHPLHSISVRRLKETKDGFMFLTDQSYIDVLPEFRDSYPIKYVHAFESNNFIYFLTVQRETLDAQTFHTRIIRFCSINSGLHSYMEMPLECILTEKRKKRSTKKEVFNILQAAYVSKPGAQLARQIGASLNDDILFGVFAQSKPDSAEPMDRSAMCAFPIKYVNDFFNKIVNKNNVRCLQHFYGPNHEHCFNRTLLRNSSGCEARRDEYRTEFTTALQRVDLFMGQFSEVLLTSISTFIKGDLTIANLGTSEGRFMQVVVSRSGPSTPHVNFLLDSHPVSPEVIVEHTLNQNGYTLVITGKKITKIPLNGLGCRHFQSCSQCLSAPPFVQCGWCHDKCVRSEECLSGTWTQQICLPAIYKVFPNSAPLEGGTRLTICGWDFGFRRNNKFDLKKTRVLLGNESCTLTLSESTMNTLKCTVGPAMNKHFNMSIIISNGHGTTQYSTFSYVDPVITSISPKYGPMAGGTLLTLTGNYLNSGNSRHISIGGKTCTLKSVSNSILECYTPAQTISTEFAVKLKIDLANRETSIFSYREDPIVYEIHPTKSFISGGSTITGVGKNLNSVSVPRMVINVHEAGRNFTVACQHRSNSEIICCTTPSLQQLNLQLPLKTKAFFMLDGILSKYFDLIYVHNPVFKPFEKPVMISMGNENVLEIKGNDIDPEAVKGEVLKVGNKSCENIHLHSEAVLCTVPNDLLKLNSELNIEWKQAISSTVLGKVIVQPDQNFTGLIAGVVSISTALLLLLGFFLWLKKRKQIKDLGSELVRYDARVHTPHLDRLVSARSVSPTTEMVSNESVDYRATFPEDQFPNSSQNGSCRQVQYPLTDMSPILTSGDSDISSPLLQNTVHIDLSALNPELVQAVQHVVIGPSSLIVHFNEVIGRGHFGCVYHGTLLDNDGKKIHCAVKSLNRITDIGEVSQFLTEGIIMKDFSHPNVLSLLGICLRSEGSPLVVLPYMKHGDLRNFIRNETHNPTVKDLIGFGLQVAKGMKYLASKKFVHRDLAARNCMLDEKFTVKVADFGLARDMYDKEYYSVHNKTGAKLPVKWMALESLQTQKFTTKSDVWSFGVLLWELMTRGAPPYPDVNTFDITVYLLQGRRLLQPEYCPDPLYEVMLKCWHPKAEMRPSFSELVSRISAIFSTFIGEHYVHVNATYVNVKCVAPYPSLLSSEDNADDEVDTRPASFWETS
Description: as §1, §2

IGF2BP1 = IGF2BP1 (Homo sapiens, UniProt Q9NZI8)
Chain of IGF2BP1 (Q9NZI8 whole entry): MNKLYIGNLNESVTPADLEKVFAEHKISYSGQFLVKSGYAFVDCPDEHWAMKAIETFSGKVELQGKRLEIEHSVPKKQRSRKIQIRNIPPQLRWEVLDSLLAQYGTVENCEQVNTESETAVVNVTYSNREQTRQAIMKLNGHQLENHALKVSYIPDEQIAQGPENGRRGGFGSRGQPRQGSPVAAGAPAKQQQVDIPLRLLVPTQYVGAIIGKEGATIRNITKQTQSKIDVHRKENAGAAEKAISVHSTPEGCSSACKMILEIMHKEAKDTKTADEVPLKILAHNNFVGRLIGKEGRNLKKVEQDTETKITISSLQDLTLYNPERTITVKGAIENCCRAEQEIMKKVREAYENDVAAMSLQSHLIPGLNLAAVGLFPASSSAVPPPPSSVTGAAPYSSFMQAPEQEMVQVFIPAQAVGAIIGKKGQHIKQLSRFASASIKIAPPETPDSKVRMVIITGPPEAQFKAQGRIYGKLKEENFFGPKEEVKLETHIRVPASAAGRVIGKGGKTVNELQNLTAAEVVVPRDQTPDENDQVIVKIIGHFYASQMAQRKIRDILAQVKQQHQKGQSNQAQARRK
Description: as §1, §2

ALK2 (ACVR1) = target: T2, ALK2 (ACVR1) (Homo sapiens, UniProt Q04771)
T2 sequence (Q04771 21-509): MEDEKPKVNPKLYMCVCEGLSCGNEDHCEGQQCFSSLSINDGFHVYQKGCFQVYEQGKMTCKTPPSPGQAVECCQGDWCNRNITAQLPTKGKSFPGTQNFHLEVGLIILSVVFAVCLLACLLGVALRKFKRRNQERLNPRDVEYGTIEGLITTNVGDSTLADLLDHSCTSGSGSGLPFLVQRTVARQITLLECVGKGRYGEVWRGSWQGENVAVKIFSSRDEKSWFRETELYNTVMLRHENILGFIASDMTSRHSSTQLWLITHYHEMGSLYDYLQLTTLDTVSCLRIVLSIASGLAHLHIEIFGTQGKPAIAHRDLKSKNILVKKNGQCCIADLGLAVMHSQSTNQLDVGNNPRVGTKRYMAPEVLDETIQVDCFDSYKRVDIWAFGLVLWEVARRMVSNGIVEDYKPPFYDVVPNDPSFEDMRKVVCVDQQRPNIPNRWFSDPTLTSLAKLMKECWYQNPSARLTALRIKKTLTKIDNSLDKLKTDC
Description: as §1, §2

EphB4 = EphB4 (Homo sapiens, UniProt P54760)
Chain of EphB4 (P54760 16-987): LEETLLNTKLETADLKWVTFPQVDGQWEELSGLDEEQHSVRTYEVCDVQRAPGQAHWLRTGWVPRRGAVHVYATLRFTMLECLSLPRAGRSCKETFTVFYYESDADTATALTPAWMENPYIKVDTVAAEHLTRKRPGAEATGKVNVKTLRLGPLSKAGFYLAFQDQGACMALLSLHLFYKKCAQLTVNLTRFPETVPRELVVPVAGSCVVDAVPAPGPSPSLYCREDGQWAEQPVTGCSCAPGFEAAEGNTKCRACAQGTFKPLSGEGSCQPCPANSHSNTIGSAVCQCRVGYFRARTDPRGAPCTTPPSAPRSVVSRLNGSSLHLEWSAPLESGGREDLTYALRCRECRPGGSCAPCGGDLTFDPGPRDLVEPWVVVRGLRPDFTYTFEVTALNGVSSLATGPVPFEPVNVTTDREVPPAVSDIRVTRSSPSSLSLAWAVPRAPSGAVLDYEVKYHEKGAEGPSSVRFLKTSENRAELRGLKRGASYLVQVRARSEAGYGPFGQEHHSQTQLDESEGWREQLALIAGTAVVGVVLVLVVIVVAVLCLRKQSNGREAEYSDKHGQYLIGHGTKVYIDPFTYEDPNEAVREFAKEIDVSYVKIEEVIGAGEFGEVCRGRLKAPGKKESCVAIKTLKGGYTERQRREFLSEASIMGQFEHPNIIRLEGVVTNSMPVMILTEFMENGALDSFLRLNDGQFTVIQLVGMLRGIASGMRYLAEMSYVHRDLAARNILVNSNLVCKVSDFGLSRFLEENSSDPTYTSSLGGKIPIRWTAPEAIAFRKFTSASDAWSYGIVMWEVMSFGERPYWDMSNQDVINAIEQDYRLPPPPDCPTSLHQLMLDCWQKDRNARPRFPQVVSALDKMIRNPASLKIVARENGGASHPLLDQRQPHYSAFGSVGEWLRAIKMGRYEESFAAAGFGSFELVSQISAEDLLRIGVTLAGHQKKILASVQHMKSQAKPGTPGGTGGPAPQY
Description: as §1, §2

T1 sequence (P07947 whole entry): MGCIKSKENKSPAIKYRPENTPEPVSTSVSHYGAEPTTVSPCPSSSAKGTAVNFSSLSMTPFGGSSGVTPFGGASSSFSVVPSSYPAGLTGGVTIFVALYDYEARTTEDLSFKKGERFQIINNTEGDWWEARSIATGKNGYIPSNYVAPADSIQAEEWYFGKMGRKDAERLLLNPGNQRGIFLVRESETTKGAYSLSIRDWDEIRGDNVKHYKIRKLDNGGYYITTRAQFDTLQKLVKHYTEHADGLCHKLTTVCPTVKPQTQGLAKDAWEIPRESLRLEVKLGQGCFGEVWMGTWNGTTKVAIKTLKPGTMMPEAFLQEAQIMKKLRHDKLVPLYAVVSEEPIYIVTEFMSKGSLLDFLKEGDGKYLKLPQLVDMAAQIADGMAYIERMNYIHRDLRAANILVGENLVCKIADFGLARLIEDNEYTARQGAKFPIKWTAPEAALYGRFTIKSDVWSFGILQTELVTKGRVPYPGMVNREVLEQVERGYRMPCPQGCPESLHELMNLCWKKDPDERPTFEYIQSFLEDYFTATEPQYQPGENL

COc1cc2ncnc(Nc3ccc(F)c(Cl)c3)c2cc1OCCCN [AX14596]
Ki (YES (YES1)): 658 µM | r (3 mg/1 mg lysate) (YES (YES1)): 2.03 | r (5 h/2.5 h inc. time) (YES (YES1)): 0.98 | rAVERAGE (2. inc/1. inc) (YES (YES1)): 0.87 | rAVERAGE (control/1. inc) (YES (YES1)): 0.05 | % BOUND (YES (YES1); bound to AX14596 beads): 13% | Ki (MET): 267 µM | r (3 mg/1 mg lysate) (MET): 2.30 | r (5 h/2.5 h inc. time) (MET): 1.12 | rAVERAGE (2. inc/1. inc) (MET): 0.73 | rAVERAGE (control/1. inc) (MET): 0.06 | % BOUND (MET; bound to AX14596 beads): 27% | Ki (IGF2BP1): 367 µM | rAVERAGE (2. inc/1. inc) (IGF2BP1): 0.79 | rAVERAGE (control/1. inc) (IGF2BP1): 0.19 | Ki (ALK2 (ACVR1)): 202 µM | r (3 mg/1 mg lysate) (ALK2 (ACVR1)): 2.57 | r (5 h/2.5 h inc. time) (ALK2 (ACVR1)): 1.17 | rAVERAGE (2. inc/1. inc) (ALK2 (ACVR1)): 0.67 | rAVERAGE (control/1. inc) (ALK2 (ACVR1)): 0.15 | Ki (EphB4): 242 µM | r (3 mg/1 mg lysate) (EphB4): 2.65 | r (5 h/2.5 h inc. time) (EphB4): 0.96 | rAVERAGE (2. inc/1. inc) (EphB4): 0.71 | rAVERAGE (control/1. inc) (EphB4): 0.05 | % BOUND (EphB4; bound to AX14596 beads): 29%
